The values below come from patent US6827926B2, “Metallotetrapyrrolic photosensitizing agents for use in photodynamic therapy” (Miravant Pharmaceuticals, Inc., priority 2001, dated 2004).

Test [1] deals with uninjured coronary and iliac arteries. The test is described as follows: Pig artery acute PDT experiments in uninjured arteries (acellularity). Conditions: 532 nm light, 55 J, 125 J/cm2, 250 mW. Type of test: in vivo. Here is the method:
(§1) Those photosensitizers showing excellent efficacy in the rat carotid artery model were evaluated in more detail in the pig coronary artery model (Waksman, R., Rodriguez, J. C., Robinson, K. A., Cipolla, G. D., Crocker, I. R., Scott, N. A. King, S. B., Wilcox, J. N., Circulation, 96, 1944-1952, 1997). If vascular PDT is to be proposed as a therapy to prevent restenosis in humans due to angioplasty or stenting, then it must first be shown to be effective in a large animal model such as the swine. Porcine coronary arteries are very similar to human coronary arteries with regard to size, neointima formation, and thrombosis in response to injury.
(§2) Photosensitizers were administered systemically (at doses typically 2-3.5 mg/kg body weight, in a soybean phospholipid formulation) as a slow bolus injection in the ear vein. Drug treatments were followed (1-4 hr later) by endovascular light treatment (50-250 J/cm^2 fluence and 100-300 mW/cm^2 irradiance) in uninjured coronary (50-250 J/cm^2 fluence and 100-300 mW/cm^2 irradiance) and iliac (50-350 J/cm^2 fluence and 100-450 mW/cm^2 irradiance) arteries. In another set of experiments, animals also received balloon injuries in the coronary arteries at the time of PDT treatment. Angioplasty injuries in 2 coronary arteries were performed. Vital signs and cardiovascular parameters such as ECG, HR, BP, were monitored together with arterio-angiograms for measurements of vessel patency.
For acute experiments done in uninjured arteries, 3-5 days after the PDT experiments, animals were sacrificed and serial sections of all relevant arteries (iliacs, & coronaries) were harvested in 10% formalin and processed for histological assessment. Results of PDT at this timepoint give us an insight into the selective cellular effects of PDT on VSMC and myofibroblasts which are known to be maximally proliferating and migrating at this same time in response to a vessel wall injury—such as an angioplasty.
For longer term efficacy experiments (14 days after the PDT experiments) animals were sacrificed and serial sections of all relevant arteries (coronaries only) were harvested in 10% formalin and processed for histological assessment. Representative arterial segments underwent parafin embedding and sectioning for Hemoxylin & Eosin and/or elastin staining. Slides were prepared for microscopy histological analysis of the (i) acute cellular responses and (ii) inhibition of neointima formation following treatment. Once prepared, the slides were analyzed via microscopy for histomorphometry and effects such as medial wall acellularity, arterial wall and surrounding tissue cell death and proliferation. […] The magnitude of the inhibition was greater than any other photosensitizer drug currently used by other groups in PDT (clinically or pre-clinically), and was on the order of that only previously seen with radiation in this model. Inhibition data is averaged over the injury length within the artery.

In test [2] the test system is balloon-injured pig coronary arteries. The test is described as follows: Pig coronary artery balloon injury model, 14 days (inhibition of neointima / intimal hyperplasia). It is filed as in vivo. To be noted: for average inhibition of intimal hyperplasia over the length of the injured artery: pig coronary arteries; for Intimal hyperplasia Inhibition (14 days) Av. over injury: pig coronary artery balloon injury, drug dose 3 mg/Kg, 532 nm light, 55 J, 125 J/cm2, 250 mW. Here is the method:
as §1
The swine model has been utilized in the preclinical evaluation of interventions to reduce restenosis for several reasons. Chief among these reasons are the similarities in (i) size and anatomy of the swine arteries to human arteries, that permits instrumentation and evaluation of results via catheters; and (ii) histopathological characteristics of the proliferative response following artery injury similar to that seen in humans. Furthermore, large animals including the swine have proven to be more predictive of success in reducing restenosis in humans than have small animal models. An extensive literature search (e.g., Weiner, B. H., et al. Circulation. 72:1081-1086,1985; Schwartz, R. S., et al. Circulation. 82:2190-2200, 1990; Vascular Brachytherapy, Veenendaal, The Netherlands:Nucletron B.V. 1996 pp.1-382) supports the notion that restenosis after balloon injury in porcine coronaries is the best model when compared to restenosis in humans. Therapies investigated in other species still must be confirmed in the porcine model. Several articles reviewing the relevant animal models for the study of restenosis have concluded that although imperfect, as are all animal models, the porcine model is still the best from the standpoint of similarity to human disease, ease of use, and cost (e.g., Schwartz, R. S., Murphy, J. G., Edwards, W. D., Camrud, A. R., Vlietstra, R. E., and Holmes, D. R. Restenosis after balloon angioplasty: A practical proliferative model in the porcine coronary arteries. Circulation. 82:2190-2200, 1990; Karas, S. P., Gravanis, M. B., Santoian, E. C., Robinson, K. A., and King, S. B., 3d Coronary intimal proliferation after balloon injury and stenting in swine: an animal model of restenosis. J.Am.Coll. Cardiology 20:467-474, 1992).
as §2
For longer term efficacy experiments (14 days after the PDT experiments) animals were sacrificed and serial sections of all relevant arteries (coronaries only) were harvested in 10% formalin and processed for histological assessment. Representative arterial segments underwent parafin embedding and sectioning for Hemoxylin & Eosin and/or elastin staining. Slides were prepared for microscopy histological analysis of the (i) acute cellular responses and (ii) inhibition of neointima formation following treatment. Once prepared, the slides were analyzed via microscopy for histomorphometry and effects such as medial wall acellularity, arterial wall and surrounding tissue cell death and proliferation. […]

Bounds are passed on as bounds.

Take “Gallium Chloride Mesoporphyrin Dimethyl Ester [Example 1]”: the “Acellularity (%) (3 days)” value in test [1] (drug dose 1 mg/Kg) was determined as 50%; in test [1] (drug dose 2 mg/Kg), 70%; in test [1] (drug dose 3 mg/Kg), 100%. In addition, the “average inhibition of intimal hyperplasia over the length of the injured artery” value in test [2] is listed as greater than 80%. In addition, the “Intimal hyperplasia Inhibition (14 days) Av. over injury” value in test [2] is listed as greater than 80%.
With `CCC1=C(C)C2=[N+]3C1=Cc1c(C)c(CC)c4[n]1[Ga-2]31([Cl])[n]3c(c(C)c(CCC(=O)NC)c3=CC3=[N+]1C(=C4)C(C)=C3CCC(=O)NC)=C2` [Example 121, Gallium Chloride Mesoporphyrin N-methyl Amide], the entries for the “Acellularity (%) (3 days)” value in test [1] (drug dose 1 mg/Kg), in test [1] (drug dose 2 mg/Kg) and in test [1] (drug dose 3 mg/Kg) were 45%, 75% and 95%, respectively. The “average inhibition of intimal hyperplasia over the length of the injured artery” value in test [2] (3 mg/Kg, light fluence 125 J/cm^2) was greater than 75%. Besides, the “Intimal hyperplasia Inhibition (14 days) Av. over injury” value in test [2] is greater than 70%.
With `COC(=O)CCC1=C(C)c2cc3[n-]c(cc4nc(cc5[n-]c(cc1n2)c(CCC(=O)OC)c5C)C=C4C)cc3C.[Cl-].[Ga+3]` [Example 4, Gallium Chloride Deuteroporphyrin Dimethyl Ester], the entries for the “Acellularity (%) (3 days)” value in test [1] (drug dose 1 mg/Kg), in test [1] (drug dose 2 mg/Kg) and in test [1] (drug dose 3 mg/Kg) were 50%, 70% and 95%, respectively. In addition, in test [2], the “average inhibition of intimal hyperplasia over the length of the injured artery” value is listed as greater than 75%. Also, the “Intimal hyperplasia Inhibition (14 days) Av. over injury” value in test [2] is given as greater than 70%.
